Drawing on ChEMBL document CHEMBL3639064, “Piperazine compound capable of inhibiting prostaglandin D synthase” (2014), this text covers IC50 for eleven compounds.

pIC50: −log10 of the molar value.

In general, pIC50 refers to the negative decadic logarithm of the IC50, by convention in mol/L.

In this assay the target is Hematopoietic prostaglandin D synthase (Homo sapiens, UniProt O60760). Kind of assay: Inhibition Assay: The test was carried out according to the method of Urade, Y. et al. (J. Biol. Chem., 262, 3820-3825, (1987)). More specifically, the reaction mixture (49 uL) containing 100 mM Tris-HCl (pH 8.0), 1 mM reduced glutathione, 0.1 mg/mL gamma-globulin, and human H-PGDS (q.s.), and a compound (final concentration: 0.01-100 uM) was preincubated at 25 C. for 5 minutes. Note that a DMSO solution (final concentration: 1%) was added to the solvent control group. Subsequently, 1 uL of [14C] prostaglandin H2 (final concentration: 10 uM) was added to start the reaction. One minute after the start of the reaction, 250 uL of a reaction stopper solution (diethylether/methanol/1 M citric acid (30/4/1) at a temperature of -20 C. was added to stop the reaction. After the reaction was stopped, 50 uL of the upper layer portion (organic solvent phase) was applied to a TLC plate and developed at -20 C. for 45 minutes.
Sequence of Hematopoietic prostaglandin D synthase (O60760 whole entry): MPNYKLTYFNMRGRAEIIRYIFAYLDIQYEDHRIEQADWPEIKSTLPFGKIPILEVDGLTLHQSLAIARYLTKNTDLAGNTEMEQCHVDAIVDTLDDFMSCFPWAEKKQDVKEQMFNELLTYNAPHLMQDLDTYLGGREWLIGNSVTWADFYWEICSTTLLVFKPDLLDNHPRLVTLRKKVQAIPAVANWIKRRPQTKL
As for `Cn1cccc1C(=O)N1CCN(C(=O)Nc2ccc(N3CCC(CCn4ccnn4)CC3)cc2)CC1`, the pIC50 is 7.15.
For the compound `Cn1cccc1C(=O)N1CCN(C(=O)Nc2ccc(N3CCC(CN4CCOCC4)CC3)cc2)CC1`, the pIC50 is 7.27.
Regarding `Cn1cccc1C(=O)N1CCN(C(=O)Nc2ccc(N3CCC(CCn4cncn4)C3)cc2)CC1` (stereo unspecified), the pIC50 was 7.17.
On to `Cn1cccc1C(=O)N1CCN(C(=O)Nc2ccc(N3CCC(CCN4CCOCC4)CC3)cc2)CC1`, for which the pIC50 was 7.37.
With `Cc1nc(C)n(CCC2CCN(c3ccc(NC(=O)N4CCN(C(=O)c5cccn5C)CC4)cc3)CC2)n1`, the negative logarithm of the IC50 (pIC50) was 7.07.
Take `Cn1cccc1C(=O)N1CCN(C(=O)Nc2ccc(N3CCC(CCn4cccn4)CC3)cc2)CC1`: the pIC50 was 7.40.
Turning to `Cn1cccc1C(=O)N1CCN(C(=O)Nc2ccc(N3CCC(CCCn4ccnn4)CC3)cc2)CC1`, the pIC50 is 7.43.
Next, `Cn1cccc1C(=O)N1CCN(C(=O)Nc2ccc(N3CCC(C(=O)N4CCCCC4)CC3)cc2)CC1`: 7.49; `CN1CCN(C(=O)C2CCN(c3ccc(NC(=O)N4CCN(C(=O)c5cccn5C)CC4)cc3)CC2)CC1`: 7.22.
With `Cn1cccc1C(=O)N1CCN(C(=O)Nc2ccc(N3CCC(C(=O)NCCN4CCOCC4)CC3)cc2)CC1`, the pIC50 was 7.23.
As for `Cn1cccc1C(=O)N1CCN(C(=O)Nc2ccc(N3CCC(C(=O)NCc4cccnc4)CC3)cc2)CC1`, the pIC50 is 7.22.
